Read-outs that look alike come from different tables or passages of the source.
Legend:
Type in all cases: cell-based
[1] = test system: bacterial strains (Pyo, Coli, Staph); assay: MIC measurement in agar medium, tested bacterial strains overall; conditions: compound alone, depending on the strains
Description: Inhibitory minimum concentration measurement tests are made in a solid agar medium according to international standards in force (CLSI M7-A9 Jan 12 standards): dispersion of the compounds to be tested in a Mueller Hinton gelose. An adaptation relating to the hydrophobicity of compounds and compositions is however necessary to disperse them in the medium: dilution of the compounds in a solvent. The compounds and compositions incorporated in the agar medium can be diluted beforehand in one or more solvents (Tween® 80 diluted with water, Tween® 80 diluted with […], DMSO diluted with water). The strains are deposited onto the agar surface with a steers apparatus. In the examples, different dissolution methods for products are tested in parallel to circumvent the problems of water/solvent distribution coefficient of the molecules (antimicrobial and potentiator) whereas the bacteria grow only in the aqueous phase. The technical requirement will not intervene in in vivo tests. The same dilution methods can be implemented in a liquid medium (microplates and tubes). The same methodology is implemented with fungi. MIC measurement: the minimum inhibitory concentration measurement tests are made in an agar solid medium according to international standards in force (CLSI standards), according to the previously defined protocol. […] [table]

[2] = test system: Pseudomonas Strain 08131; assay: Etest, Pseudomonas Strain 08131; conditions: for MIC: Pseudomonas, STRAIN08131, Strain 08131, read-out: MIC of Pipera tazo; for MIC of Meropenem: Strain 08131
Description: (§1) The corresponding tests are made based on the usual MIC test: the Etest® (Biomerieux) strip is deposited onto the surface of a seeded agar medium in which the booster has been incorporated. This test enables solvent effect risks, that is a possible interaction with the solvent used in vitro, to be minimised.
(§2) The control corresponds to the test made without cineol. A control is made in each solvent tested: distilled water, Tween/water and DMSO.
(§3) ED control=antibiotic alone in distilled water
(§4) DMSO control=antibiotic alone in DMSO
(§5) TE control=antibiotic alone in Tween® 80

[3] = test system: Pseudomonas Strain 08132; assay: Etest, Pseudomonas Strain 08132
Description: as §1, §2, §3, §4, §5

[4] = test system: MRSA 10178; assay: Etest, staphylococci MRSA 10178; conditions: MRSA 10178
Description: as §1, §2, §3, §4, §5

[5] = test system: MSSA 8237; assay: Etest, staphylococci MSSA 8237; conditions: for MIC: Staphylococcus aureus, MSSA
Description: as §1, §2, §3, §4, §5

[6] = test system: Strain 09003, methicillin resistant S. aureus (MRSA); assay: Resistance test (resistant mutants), Strain 09003; conditions: MRSA, text after Table 15
Procedure: After 48 h incubation, the presence or absence of colonies likely to be resistant mutants is observed.
ED control or DMSO=only distilled water or DMSO is added
Ciprofloxacine DMSO: addition of Ciprofloxacine in DMSO

[7] = booster 1 mg/L in agar, Tween/water
[8] = booster 4 mg/L in agar, Tween/water
[9] = booster 16 mg/L in agar, Tween/water
[10] = MSSA 8237, booster 1 mg/L in agar, DMSO
[11] = MSSA 8237, booster 1 mg/L in agar, Tween/water
[12] = MSSA 8237, booster 4 mg/L in agar, DMSO
[13] = MSSA 8237, booster 4 mg/L in agar, Tween/water
[14] = MSSA 8237, booster 16 mg/L in agar, DMSO
[15] = MSSA 8237, booster 16 mg/L in agar, Tween/water
[16] = MSSA 8237, booster 1 mg/L in agar, DMSO, read-out: MIC of Clindamycine
[17] = MSSA 8237, booster 1 mg/L in agar, Tween/water, read-out: MIC of Clindamycine
[18] = MSSA 8237, booster 4 mg/L in agar, DMSO, read-out: MIC of Clindamycine
[19] = MSSA 8237, booster 4 mg/L in agar, Tween/water, read-out: MIC of Clindamycine
[20] = MSSA 8237, booster 16 mg/L in agar, DMSO, read-out: MIC of Clindamycine
[21] = MSSA 8237, booster 16 mg/L in agar, Tween/water, read-out: MIC of Clindamycine
[22] = read-out: MIC of Pipera tazo, MSSA 8237, booster 1 mg/L in agar, DMSO
[23] = read-out: MIC of Pipera tazo, MSSA 8237, booster 1 mg/L in agar, Tween/water
[24] = read-out: MIC of Pipera tazo, MSSA 8237, booster 4 mg/L in agar, DMSO
[25] = read-out: MIC of Pipera tazo, MSSA 8237, booster 4 mg/L in agar, Tween/water
[26] = read-out: MIC of Pipera tazo, MSSA 8237, booster 16 mg/L in agar, Tween/water

CC(=O)OCC=Cc1ccccc1 [AC, cinnamyl acetate]
MIC [1]: > 10000 µg/mL | MIC ([2]; booster 1 mg/L in agar, DMSO): 6 µg/mL | MIC [2, 7]: 6 µg/mL | MIC ([2]; booster 4 mg/L in agar, DMSO): 3 µg/mL | MIC [2, 8]: 3 µg/mL | MIC ([2]; booster 16 mg/L in agar, DMSO): 3 µg/mL | MIC [2, 9]: 3 µg/mL | MIC of Meropenem ([2]; booster 1 mg/L in agar, DMSO): 1.5 µg/mL | MIC of Meropenem [2, 7]: 2 µg/mL | MIC of Meropenem ([2]; booster 4 mg/L in agar, DMSO): 0.75 µg/mL | MIC of Meropenem [2, 8]: 0.5 µg/mL | MIC of Meropenem ([2]; booster 16 mg/L in agar, DMSO): 0.75 µg/mL | MIC of Meropenem [2, 9]: 0.38 µg/mL | MIC of Meropenem [3, 7]: 8 µg/mL | MIC of Cefoxitine ([4]; booster 1 mg/L in agar, DMSO): 4 µg/mL | MIC of Tigecycline ([4]; booster 1 mg/L in agar, DMSO): 0.125 µg/mL | MIC of Cefoxitine [4, 7]: 4 µg/mL | MIC of Tigecycline [4, 7]: 0.125 µg/mL | MIC of Cefoxitine ([4]; booster 4 mg/L in agar, DMSO): 1 µg/mL | MIC of Tigecycline ([4]; booster 4 mg/L in agar, DMSO): 0.047 µg/mL | MIC of Cefoxitine [4, 8]: 0.75 µg/mL | MIC of Tigecycline [4, 8]: 0.047 µg/mL | MIC of Cefoxitine ([4]; booster 16 mg/L in agar, DMSO): <0.016 µg/mL | MIC of Tigecycline ([4]; booster 16 mg/L in agar, DMSO): <0.016 µg/mL | MIC of Cefoxitine [4, 9]: <0.016 µg/mL | MIC of Tigecycline [4, 9]: <0.016 µg/mL | MIC of Cefoxitine [5, 10]: 2 µg/mL | MIC of Meropenem [5, 10]: 0.25 µg/mL | MIC of Penicillin G [5, 10]: 0.25 µg/mL | MIC of Cefoxitine [5, 11]: 3 µg/mL | MIC of Meropenem [5, 11]: 0.25 µg/mL | MIC of Penicillin G [5, 11]: 0.5 µg/mL | MIC of Cefoxitine [5, 12]: 3 µg/mL | MIC of Meropenem [5, 12]: 0.19 µg/mL | MIC of Penicillin G [5, 12]: 0.19 µg/mL | MIC of Cefoxitine [5, 13]: 2 µg/mL | MIC of Meropenem [5, 13]: 0.19 µg/mL | MIC of Penicillin G [5, 13]: 0.125 µg/mL | MIC of Cefoxitine [5, 14]: <0.016 µg/mL | MIC of Meropenem [5, 14]: <0.002 µg/mL | MIC of Penicillin G [5, 14]: <0.002 µg/mL | MIC of Cefoxitine [5, 15]: 1.5 µg/mL | MIC of Meropenem [5, 15]: 0.064 µg/mL | MIC of Penicillin G [5, 15]: 0.064 µg/mL | MIC [5, 16]: 0.047 µg/mL | MIC [5, 17]: 0.047 µg/mL | MIC [5, 18]: 0.047 µg/mL | MIC [5, 19]: 0.064 µg/mL | MIC [5, 20]: < 0.016 µg/mL | MIC [5, 21]: 0.125 µg/mL | MIC [5, 22]: 0.75 µg/mL | MIC [5, 23]: 1 µg/mL | MIC [5, 24]: 0.5 µg/mL | MIC [5, 25]: 0.5 µg/mL | MIC [5, 26]: 0.38 µg/mL | occurrence of mutants on addition of the compound to ciprofloxacine [6]: does not cause the occurrence of mutants any longer

O=C(OCc1ccccc1)c1ccccc1 [BB, benzyl benzoate]
MIC [1]: > 10000 µg/mL | MIC ([2]; booster 1 mg/L in agar, DMSO): 6 µg/mL | MIC [2, 7]: 8 µg/mL | MIC ([2]; booster 4 mg/L in agar, DMSO): 8 µg/mL | MIC [2, 8]: 6 µg/mL | MIC ([2]; booster 16 mg/L in agar, DMSO): 6 µg/mL | MIC [2, 9]: 4 µg/mL | MIC of Meropenem ([2]; booster 1 mg/L in agar, DMSO): 1.5 µg/mL | MIC of Meropenem [2, 7]: 3 µg/mL | MIC of Meropenem ([2]; booster 4 mg/L in agar, DMSO): 2 µg/mL | MIC of Meropenem [2, 8]: 3 µg/mL | MIC of Meropenem ([2]; booster 16 mg/L in agar, DMSO): 2 µg/mL | MIC of Meropenem [2, 9]: 1 µg/mL | MIC of Meropenem ([3]; booster 4 mg/L in agar, DMSO): 8 µg/mL | MIC of Meropenem [3, 8]: 8 µg/mL | MIC of Meropenem ([3]; booster 16 mg/L in agar, DMSO): 2 µg/mL | MIC of Meropenem [3, 9]: 12 µg/mL | MIC of Cefoxitine ([4]; booster 1 mg/L in agar, DMSO): 3 µg/mL | MIC of Tigecycline ([4]; booster 1 mg/L in agar, DMSO): 0.047 µg/mL | MIC of Cefoxitine [4, 7]: 3 µg/mL | MIC of Tigecycline [4, 7]: 0.094 µg/mL | MIC of Cefoxitine ([4]; booster 4 mg/L in agar, DMSO): 2 µg/mL | MIC of Tigecycline ([4]; booster 4 mg/L in agar, DMSO): 0.125 µg/mL | MIC of Cefoxitine [4, 8]: 2 µg/mL | MIC of Tigecycline [4, 8]: 0.25 µg/mL | MIC of Cefoxitine ([4]; booster 16 mg/L in agar, DMSO): 1 µg/mL | MIC of Tigecycline ([4]; booster 16 mg/L in agar, DMSO): 0.032 µg/mL | MIC of Cefoxitine [4, 9]: 1.5 µg/mL | MIC of Tigecycline [4, 9]: 0.047 µg/mL | MIC of Cefoxitine [5, 10]: 2 µg/mL | MIC of Meropenem [5, 10]: 0.25 µg/mL | MIC of Penicillin G [5, 10]: 0.38 µg/mL | MIC of Cefoxitine [5, 11]: 3 µg/mL | MIC of Meropenem [5, 11]: 0.19 µg/mL | MIC of Penicillin G [5, 11]: 0.25 µg/mL | MIC of Cefoxitine [5, 12]: 3 µg/mL | MIC of Meropenem [5, 12]: 0.19 µg/mL | MIC of Penicillin G [5, 12]: 0.25 µg/mL | MIC of Cefoxitine [5, 13]: 3 µg/mL | MIC of Meropenem [5, 13]: 0.125 µg/mL | MIC of Penicillin G [5, 13]: 0.19 µg/mL | MIC of Cefoxitine [5, 14]: 3 µg/mL | MIC of Meropenem [5, 14]: 0.19 µg/mL | MIC of Penicillin G [5, 14]: 0.19 µg/mL | MIC of Cefoxitine [5, 15]: 3 µg/mL | MIC of Meropenem [5, 15]: 0.064 µg/mL | MIC of Penicillin G [5, 15]: 0.125 µg/mL | MIC [5, 16]: 0.047 µg/mL | MIC [5, 17]: 0.047 µg/mL | MIC [5, 18]: 0.047 µg/mL | MIC [5, 19]: 0.047 µg/mL | MIC [5, 20]: 0.047 µg/mL | MIC [5, 21]: 0.094 µg/mL | MIC [5, 22]: 1 µg/mL | MIC [5, 23]: 1 µg/mL | MIC [5, 24]: 1 µg/mL | MIC [5, 25]: 1 µg/mL | MIC ([5]; read-out: MIC of Pipera tazo, MSSA 8237, booster 16 mg/L in agar, DMSO): 0.75 µg/mL | MIC [5, 26]: 0.75 µg/mL | occurrence of mutants on addition of the compound to ciprofloxacine [6]: does not cause the occurrence of mutants any longer

Source: US10758620B2, “Potentiated antimicrobial agents” (SEPTEOS, priority 2014, dated 2020)
